Reference: ChEMBL document CHEMBL1926576, “Fragment based lead discovery of small molecule inhibitors for the EPHA4 receptor tyrosine kinase” (Eur J Med Chem, 2012)

Tests used:
[1] = molecular target: Mitogen-activated protein kinase 11 (Homo sapiens) (UniProt Q15759); assay: Inhibition of p38beta MAPK assessed as residual activity at 10 uM using [33P-ATP] by radiometric filter binding assay
[2] = molecular target: Serine/threonine-protein kinase PAK 5 (Homo sapiens) (UniProt Q9P286); assay: Inhibition of PAK5 assessed as residual activity at 10 uM using [33P-ATP] by radiometric filter binding assay
[3] = Inhibition of PHK assessed as residual activity at 10 uM using [33P-ATP] by radiometric filter binding assay
[4] = molecular target: Protein kinase C zeta type (Homo sapiens) (UniProt Q05513); assay: Inhibition of PKCzeta assessed as residual activity at 10 uM using [33P-ATP] by radiometric filter binding assay
[5] = molecular target: Serine/threonine-protein kinase D1 (Homo sapiens) (UniProt Q15139); assay: Inhibition of PKD1 assessed as residual activity at 10 uM using [33P-ATP] by radiometric filter binding assay
[6] = molecular target: MAP kinase-activated protein kinase 5 (Homo sapiens) (UniProt Q8IW41); assay: Inhibition of PRAK assessed as residual activity at 10 uM using [33P-ATP] by radiometric filter binding assay
[7] = molecular target: Ribosomal protein S6 kinase alpha-1 (Homo sapiens) (UniProt Q15418); assay: Inhibition of RSK1 assessed as residual activity at 10 uM using [33P-ATP] by radiometric filter binding assay
[8] = molecular target: Ribosomal protein S6 kinase alpha-3 (Homo sapiens) (UniProt P51812); assay: Inhibition of RSK2 assessed as residual activity at 10 uM using [33P-ATP] by radiometric filter binding assay
[9] = molecular target: Ribosomal protein S6 kinase beta-1 (Homo sapiens) (UniProt P23443); assay: Inhibition of S6K1 assessed as residual activity at 10 uM using [33P-ATP] by radiometric filter binding assay
[10] = molecular target: Proto-oncogene tyrosine-protein kinase Src (Homo sapiens) (UniProt P12931); assay: Inhibition of Src assessed as residual activity at 10 uM using [33P-ATP] by radiometric filter binding assay
[11] = molecular target: Mitogen-activated protein kinase kinase kinase 7 (Homo sapiens) (UniProt O43318); assay: Inhibition of TAK1 assessed as residual activity at 10 uM using [33P-ATP] by radiometric filter binding assay
[12] = molecular target: Dual specificity testis-specific protein kinase 1 (Homo sapiens) (UniProt Q15569); assay: Inhibition of TESK1 assessed as residual activity at 10 uM using [33P-ATP] by radiometric filter binding assay
[13] = molecular target: Tyrosine-protein kinase Yes (Homo sapiens) (UniProt P07947); assay: Inhibition of YES1 assessed as residual activity at 10 uM using [33P-ATP] by radiometric filter binding assay
[14] = molecular target: Tyrosine-protein kinase ZAP-70 (Homo sapiens) (UniProt P43403); assay: Inhibition of ZAP70 assessed as residual activity at 10 uM using [33P-ATP] by radiometric filter binding assay
[15] = molecular target: Tyrosine-protein kinase ABL1 (Homo sapiens) (UniProt P00519); assay: Inhibition of ABL assessed as residual activity at 10 uM using [33P-ATP] by radiometric filter binding assay
[16] = molecular target: Aurora kinase A (Homo sapiens) (UniProt O14965); assay: Inhibition of aurora-A assessed as residual activity at 10 uM using [33P-ATP] by radiometric filter binding assay
[17] = molecular target: Protein-tyrosine kinase 6 (Homo sapiens) (UniProt Q13882); assay: Inhibition of BRK assessed as residual activity at 10 uM using [33P-ATP] by radiometric filter binding assay
[18] = molecular target: Casein kinase I isoform alpha (Homo sapiens) (UniProt P48729); assay: Inhibition of CK1 assessed as residual activity at 10 uM using [33P-ATP] by radiometric filter binding assay
[19] = Inhibition of CK2 assessed as residual activity at 10 uM using [33P-ATP] by radiometric filter binding assay
[20] = molecular target: Death-associated protein kinase 1 (Homo sapiens) (UniProt P53355); assay: Inhibition of DAPK1 assessed as residual activity at 10 uM using [33P-ATP] by radiometric filter binding assay
[21] = molecular target: Dual specificity tyrosine-phosphorylation-regulated kinase 1A (Homo sapiens) (UniProt Q13627); assay: Inhibition of DYRK1A assessed as residual activity at 10 uM using [33P-ATP] by radiometric filter binding assay
[22] = molecular target: Mitogen-activated protein kinase 15 (Homo sapiens) (UniProt Q8TD08); assay: Inhibition of ERK8 assessed as residual activity at 10 uM using [33P-ATP] by radiometric filter binding assay
[23] = molecular target: Fibroblast growth factor receptor 1 (Homo sapiens) (UniProt P11362); assay: Inhibition of FGF-R1 assessed as residual activity at 10 uM using [33P-ATP] by radiometric filter binding assay
[24] = molecular target: Glycogen synthase kinase-3 beta (Homo sapiens) (UniProt P49841); assay: Inhibition of GSK3b assessed as residual activity at 10 uM using [33P-ATP] by radiometric filter binding assay
[25] = molecular target: Homeodomain-interacting protein kinase 2 (Homo sapiens) (UniProt Q9H2X6); assay: Inhibition of HIPK2 assessed as residual activity at 10 uM using [33P-ATP] by radiometric filter binding assay
[26] = molecular target: Insulin-like growth factor 1 receptor (Homo sapiens) (UniProt P08069); assay: Inhibition of IGF-1R assessed as residual activity at 10 uM using [33P-ATP] by radiometric filter binding assay
[27] = molecular target: MAP kinase-activated protein kinase 2 (Homo sapiens) (UniProt P49137); assay: Inhibition of MAPKAP-K2 assessed as residual activity at 10 uM using [33P-ATP] by radiometric filter binding assay
[28] = molecular target: MAP kinase-activated protein kinase 3 (Homo sapiens) (UniProt Q16644); assay: Inhibition of MAPKAP-K3 assessed as residual activity at 10 uM using [33P-ATP] by radiometric filter binding assay
[29] = molecular target: Serine/threonine-protein kinase MARK2 (Homo sapiens) (UniProt Q7KZI7); assay: Inhibition of MARK2 assessed as residual activity at 10 uM using [33P-ATP] by radiometric filter binding assay
[30] = molecular target: Maternal embryonic leucine zipper kinase (Homo sapiens) (UniProt Q14680); assay: Inhibition of MELK assessed as residual activity at 10 uM using [33P-ATP] by radiometric filter binding assay
[31] = molecular target: Dual specificity mitogen-activated protein kinase kinase 2 (Homo sapiens) (UniProt P36507); assay: Inhibition of MKK2 assessed as residual activity at 10 uM using [33P-ATP] by radiometric filter binding assay
[32] = molecular target: MAP kinase-interacting serine/threonine-protein kinase 1 (Homo sapiens) (UniProt Q9BUB5); assay: Inhibition of MNK1 assessed as residual activity at 10 uM using [33P-ATP] by radiometric filter binding assay
[33] = molecular target: Ribosomal protein S6 kinase alpha-5 (Homo sapiens) (UniProt O75582); assay: Inhibition of MSK1 assessed as residual activity at 10 uM using [33P-ATP] by radiometric filter binding assay

Sequence of MAP kinase-activated protein kinase 3 (Homo sapiens) (Q16644 whole entry, looked up): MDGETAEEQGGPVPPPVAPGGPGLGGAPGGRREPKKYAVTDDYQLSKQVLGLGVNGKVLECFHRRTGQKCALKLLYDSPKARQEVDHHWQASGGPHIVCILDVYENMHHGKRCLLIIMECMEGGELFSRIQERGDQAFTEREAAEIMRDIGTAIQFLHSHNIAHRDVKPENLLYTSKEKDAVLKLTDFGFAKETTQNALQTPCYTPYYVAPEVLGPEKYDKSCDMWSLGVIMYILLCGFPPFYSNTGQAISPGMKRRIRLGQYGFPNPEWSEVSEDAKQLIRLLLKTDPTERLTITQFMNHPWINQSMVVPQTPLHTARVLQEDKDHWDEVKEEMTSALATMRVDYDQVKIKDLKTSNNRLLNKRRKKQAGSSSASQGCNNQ
Sequence of Maternal embryonic leucine zipper kinase (Homo sapiens) (Q14680 whole entry, looked up): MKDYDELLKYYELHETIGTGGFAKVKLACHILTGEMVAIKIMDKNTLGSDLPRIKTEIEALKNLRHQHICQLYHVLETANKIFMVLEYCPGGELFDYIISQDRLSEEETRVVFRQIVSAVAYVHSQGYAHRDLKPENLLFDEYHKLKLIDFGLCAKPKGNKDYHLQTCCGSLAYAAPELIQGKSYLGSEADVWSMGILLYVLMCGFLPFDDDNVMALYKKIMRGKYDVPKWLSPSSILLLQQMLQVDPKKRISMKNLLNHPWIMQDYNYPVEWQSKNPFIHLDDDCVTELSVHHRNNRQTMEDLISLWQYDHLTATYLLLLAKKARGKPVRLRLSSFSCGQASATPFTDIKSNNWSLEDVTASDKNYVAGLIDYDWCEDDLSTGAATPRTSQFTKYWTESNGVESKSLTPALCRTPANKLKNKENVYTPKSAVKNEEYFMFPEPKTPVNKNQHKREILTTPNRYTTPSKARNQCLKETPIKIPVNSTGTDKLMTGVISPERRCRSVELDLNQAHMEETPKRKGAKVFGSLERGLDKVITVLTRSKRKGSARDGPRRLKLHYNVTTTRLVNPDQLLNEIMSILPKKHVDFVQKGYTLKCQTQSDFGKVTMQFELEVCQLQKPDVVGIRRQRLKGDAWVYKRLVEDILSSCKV
Sequence of Serine/threonine-protein kinase PAK 5 (Homo sapiens) (Q9P286 whole entry, looked up): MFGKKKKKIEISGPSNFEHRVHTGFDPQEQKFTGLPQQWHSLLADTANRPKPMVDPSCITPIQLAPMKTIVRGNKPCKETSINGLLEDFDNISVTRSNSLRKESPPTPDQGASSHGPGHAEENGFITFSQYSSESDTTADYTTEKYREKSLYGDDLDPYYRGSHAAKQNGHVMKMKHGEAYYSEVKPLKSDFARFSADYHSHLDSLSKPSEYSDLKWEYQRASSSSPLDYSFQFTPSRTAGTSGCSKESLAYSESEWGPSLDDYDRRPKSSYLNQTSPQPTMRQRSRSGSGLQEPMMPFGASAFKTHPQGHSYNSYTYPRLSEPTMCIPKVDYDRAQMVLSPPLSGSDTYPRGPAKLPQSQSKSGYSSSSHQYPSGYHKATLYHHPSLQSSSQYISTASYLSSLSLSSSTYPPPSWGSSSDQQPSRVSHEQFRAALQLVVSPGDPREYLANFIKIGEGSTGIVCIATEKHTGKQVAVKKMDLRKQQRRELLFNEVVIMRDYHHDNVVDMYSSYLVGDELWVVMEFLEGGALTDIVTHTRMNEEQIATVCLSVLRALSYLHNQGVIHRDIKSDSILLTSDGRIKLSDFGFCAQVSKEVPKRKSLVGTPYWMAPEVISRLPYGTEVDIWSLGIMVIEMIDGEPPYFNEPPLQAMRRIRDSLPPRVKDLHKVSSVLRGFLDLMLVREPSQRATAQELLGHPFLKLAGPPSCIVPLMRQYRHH
Sequence of Tyrosine-protein kinase Yes (Homo sapiens) (P07947 2-543 limits assumed): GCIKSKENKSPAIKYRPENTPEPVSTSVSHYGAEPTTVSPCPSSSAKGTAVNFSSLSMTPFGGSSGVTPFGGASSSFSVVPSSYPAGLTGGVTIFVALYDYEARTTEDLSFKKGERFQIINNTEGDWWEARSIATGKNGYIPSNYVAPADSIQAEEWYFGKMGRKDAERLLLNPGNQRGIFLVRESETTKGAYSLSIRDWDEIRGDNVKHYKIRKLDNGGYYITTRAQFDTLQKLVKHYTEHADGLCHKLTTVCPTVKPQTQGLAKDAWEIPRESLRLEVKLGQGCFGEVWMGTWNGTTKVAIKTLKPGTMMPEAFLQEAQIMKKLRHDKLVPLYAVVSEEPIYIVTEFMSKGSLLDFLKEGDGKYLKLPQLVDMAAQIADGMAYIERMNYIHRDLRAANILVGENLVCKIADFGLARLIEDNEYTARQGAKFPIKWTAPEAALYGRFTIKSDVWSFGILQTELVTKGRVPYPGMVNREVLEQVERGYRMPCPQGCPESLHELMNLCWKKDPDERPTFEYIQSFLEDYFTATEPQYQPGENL
Sequence of Protein kinase C zeta type (Homo sapiens) (Q05513 whole entry): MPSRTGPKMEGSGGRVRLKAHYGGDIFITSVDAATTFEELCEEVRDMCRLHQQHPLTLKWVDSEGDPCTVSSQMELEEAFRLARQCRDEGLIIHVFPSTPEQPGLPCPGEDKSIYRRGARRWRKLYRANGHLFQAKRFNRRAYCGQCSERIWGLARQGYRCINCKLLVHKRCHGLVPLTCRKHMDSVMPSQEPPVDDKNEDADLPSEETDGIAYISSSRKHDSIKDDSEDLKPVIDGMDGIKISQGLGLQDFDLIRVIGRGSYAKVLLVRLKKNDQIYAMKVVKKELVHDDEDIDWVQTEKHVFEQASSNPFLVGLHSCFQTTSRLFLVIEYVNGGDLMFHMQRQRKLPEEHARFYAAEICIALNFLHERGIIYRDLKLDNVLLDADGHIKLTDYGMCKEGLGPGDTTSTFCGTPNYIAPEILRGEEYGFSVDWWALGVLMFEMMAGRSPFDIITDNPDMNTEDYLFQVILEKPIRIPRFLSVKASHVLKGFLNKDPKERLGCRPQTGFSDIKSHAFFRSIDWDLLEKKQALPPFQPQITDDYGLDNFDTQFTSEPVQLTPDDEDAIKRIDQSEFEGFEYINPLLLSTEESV
Sequence of Homeodomain-interacting protein kinase 2 (Homo sapiens) (Q9H2X6 whole entry, looked up): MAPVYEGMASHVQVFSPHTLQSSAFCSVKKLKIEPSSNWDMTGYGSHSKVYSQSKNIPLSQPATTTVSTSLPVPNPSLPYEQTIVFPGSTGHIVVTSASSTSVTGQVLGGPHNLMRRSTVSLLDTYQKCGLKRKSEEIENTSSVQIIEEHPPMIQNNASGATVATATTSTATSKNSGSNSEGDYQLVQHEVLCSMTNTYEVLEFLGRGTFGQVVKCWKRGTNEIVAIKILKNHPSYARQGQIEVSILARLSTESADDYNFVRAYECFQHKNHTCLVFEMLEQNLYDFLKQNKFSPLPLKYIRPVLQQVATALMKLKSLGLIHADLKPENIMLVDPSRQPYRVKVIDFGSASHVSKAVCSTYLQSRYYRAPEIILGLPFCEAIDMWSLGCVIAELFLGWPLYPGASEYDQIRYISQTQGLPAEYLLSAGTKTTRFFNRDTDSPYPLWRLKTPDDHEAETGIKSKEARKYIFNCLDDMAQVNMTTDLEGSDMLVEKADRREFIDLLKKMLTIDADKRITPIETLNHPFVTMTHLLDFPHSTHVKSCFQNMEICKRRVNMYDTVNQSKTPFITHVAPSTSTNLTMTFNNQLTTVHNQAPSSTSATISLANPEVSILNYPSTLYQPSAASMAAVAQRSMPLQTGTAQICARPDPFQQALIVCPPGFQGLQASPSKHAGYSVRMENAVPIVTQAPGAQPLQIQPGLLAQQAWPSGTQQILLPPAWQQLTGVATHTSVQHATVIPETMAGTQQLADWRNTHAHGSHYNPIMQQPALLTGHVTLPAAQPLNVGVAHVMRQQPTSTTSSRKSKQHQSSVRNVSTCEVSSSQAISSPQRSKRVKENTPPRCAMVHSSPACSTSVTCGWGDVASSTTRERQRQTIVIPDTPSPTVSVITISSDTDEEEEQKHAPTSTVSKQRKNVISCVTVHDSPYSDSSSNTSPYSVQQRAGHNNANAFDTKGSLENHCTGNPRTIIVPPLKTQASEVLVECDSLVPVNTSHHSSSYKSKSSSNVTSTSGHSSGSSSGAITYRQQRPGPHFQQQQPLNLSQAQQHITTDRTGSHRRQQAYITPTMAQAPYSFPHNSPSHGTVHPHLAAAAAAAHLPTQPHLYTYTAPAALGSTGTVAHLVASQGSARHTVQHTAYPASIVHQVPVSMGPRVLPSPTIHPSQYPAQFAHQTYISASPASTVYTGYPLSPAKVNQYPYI
Sequence of Mitogen-activated protein kinase 11 (Homo sapiens) (Q15759 whole entry): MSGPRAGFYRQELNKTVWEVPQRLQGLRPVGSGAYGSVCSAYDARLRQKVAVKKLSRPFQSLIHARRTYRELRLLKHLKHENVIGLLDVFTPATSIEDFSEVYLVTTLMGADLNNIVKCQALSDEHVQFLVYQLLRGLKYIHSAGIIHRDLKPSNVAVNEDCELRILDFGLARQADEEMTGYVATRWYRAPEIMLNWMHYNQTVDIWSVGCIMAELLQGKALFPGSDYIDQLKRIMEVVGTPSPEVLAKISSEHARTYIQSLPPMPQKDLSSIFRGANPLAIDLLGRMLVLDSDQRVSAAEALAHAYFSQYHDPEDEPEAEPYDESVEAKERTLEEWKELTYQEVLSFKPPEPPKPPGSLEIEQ
Sequence of Dual specificity mitogen-activated protein kinase kinase 2 (Homo sapiens) (P36507 whole entry): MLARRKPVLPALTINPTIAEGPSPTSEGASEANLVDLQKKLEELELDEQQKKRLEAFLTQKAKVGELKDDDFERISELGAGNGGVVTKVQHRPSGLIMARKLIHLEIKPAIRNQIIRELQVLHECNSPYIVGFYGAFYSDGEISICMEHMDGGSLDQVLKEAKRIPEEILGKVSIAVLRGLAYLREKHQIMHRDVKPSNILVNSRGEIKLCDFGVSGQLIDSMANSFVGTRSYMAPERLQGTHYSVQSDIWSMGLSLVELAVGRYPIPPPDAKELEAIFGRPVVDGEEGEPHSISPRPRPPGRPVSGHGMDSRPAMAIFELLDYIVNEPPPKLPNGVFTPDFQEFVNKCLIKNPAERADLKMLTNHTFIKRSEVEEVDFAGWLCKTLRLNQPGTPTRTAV

Cc1ccc(F)cc1-c1nc2[nH]nc(N)c2c2c1CCCC2
Activity [1]: 25% | Activity [2]: 92% | Activity [3]: 86% | Activity [4]: 106% | Activity [5]: 63% | Activity [6]: 97% | Activity [7]: 93% | Activity [8]: 82% | Activity [9]: 103% | Activity [10]: 25% | Activity [11]: 96% | Activity [12]: 23% | Activity [13]: 18% | Activity [14]: 107% | Activity [15]: 45% | Activity [16]: 68% | Activity [17]: 71% | Activity [18]: 96% | Activity [19]: 93% | Activity [20]: 101% | Activity [21]: 60% | Activity [22]: 46% | Activity [23]: 55% | Activity [24]: 73% | Activity [25]: 98% | Activity [26]: 71% | Activity [27]: 89% | Activity [28]: 84% | Activity [29]: 78% | Activity [30]: 64% | Activity [31]: 31% | Activity [32]: 78% | Activity [33]: 75%
